The source of these data is patent US8357705B2 (priority 2008, dated 2013).

Usually melting point stands for the temperature of the solid-liquid transition.

For data set [1], the system named is sodium channel binding site 2. The arrangement: species or system rat.

As for `Cc1cnc([C@@H](Cc2c[nH]c3ccccc23)NC2CCC(c3ccccc3)(N(C)C)CC2)o1` (stereo partly shown), the melting point was 65 to 70 °C.

In turn, `Cc1csc([C@@H](Cc2c[nH]c3ccccc23)NC2CCC(c3ccccc3)(N(C)C)CC2)n1` (stereo partly shown) displayed a melting point of 71 to 74 °C.

In turn, `CN(C)C1(c2ccccc2)CCC(N(C(=O)C(F)(F)F)C(Cc2c[nH]c3ccccc23)c2nnn[nH]2)CC1` (stereo not shown) yielded a melting point of 195 to 228 °C.

Turning to `CN(C)C(=O)[C@H](Cc1c[nH]c2ccccc12)NC1CCC(c2ccccc2)(N(C)C)CC1.Cl.Cl` (stereo partly drawn) [Example 6, (S)-2-(4-(dimethylamino)-4-phenylcyclohexylamino)-3-(1H-indol-3-yl)-N,N-dimethylpropanamide dihydrochloride], the “Inhibition (BTX) Mean [% at 10 μM]” value in data set [1] is given as 15%.
